Assay type in all cases: biochemical, Pseudomonas sp. No. 15-1
Data set [1] concerns N-acetylhexosamine oxidase. The experiment in a line: Activity inhibition of the enzyme by metallic ions or inhibitors. Conditions: for Inhibition of enzyme activity (in words): tris-hydrochloric acid buffer pH 7.5, 1.8mM; for Residual activity (%): tris-hydrochloric acid buffer solution of pH 7.5, 1.8mM metallic ion or inhibitor. On the procedure: The activity of the present enzyme was measured in various solutions each comprising a tris-hydrochloric acid buffer solution of pH 7.5 and 1.8mM metallic ion or inhibitor.

Data set [2] concerns N-acetylhexosamine oxidase. The data set is described as above.
The test system of data set [3] is N-acetylhexosamine oxidase. The experiment in a line: Action and specificity for substrate. Conditions: in the presence of oxygen. The source says:
As shown in the following reaction formula, the present enzyme oxidizes N-acetylhexosamine in the presence of oxygen to form N-acetylhexosaminic acid and hydrogen peroxide.

The subject of data set [4] is N-acetylhexosamine oxidase. The experiment in a line: Activity stabilization by bovine serum albumin during heat treatment. Conditions: 1 mg/ml bovine serum albumin, potassium phosphate buffer pH 6.8, 10 minutes heat treatment.
Protocol: Further, in 10 minutes heat treatment at 45° C., the present enzyme is stable between pH 3 and pH 9 and loses its activity rapidly at a more acidic region and slowly at a more alkaline region. In this experiment, the hydrogen peroxide method was adopted, and the residual activity of the present enzyme subjected to 10 minutes heat treatment in a potassium phosphate buffer solution of pH 6.8 at each temperature was compared with the residual activity of the same enzyme subjected to the same treatment in a potassium phosphate buffer solution of pH 6.8 containing 1 mg/ml of bovine serum albumin.

With `CC(=O)[O-].CC(=O)[O-].[Pb+2]` [Pb(CH3 COO)2], in data set [1], the “Inhibition of enzyme activity (in words)” value is “considerably” and the “Residual activity (%)” value is 42%. Regarding `O=S(=O)([O-])[O-].[Mg+2]` [MgSO4], the “Residual activity (%)” value in data set [1] amounted to 86%. As to `Oc1cccc2cccnc12` [8-Hydroxyquinoline], in data set [2] (pH 7.5), the “Residual activity (%)” value was 102%.

Consider `O=S(=O)([O-])[O-].[Mn+2]` [MnSO4], for which the “Residual activity (%)” value in data set [1] came to 84%. Take `c1cnc2c(c1)ccc1cccnc12` [o'-Phenanthroline]: the “Residual activity (%)” value in data set [1] came out at 81%. On to `CC(=O)N[C@H]1[C@H]([C@H](O)[C@H](O)CO)OC(O)(C(=O)O)C[C@@H]1O` (stereo partly drawn) [N-acetylneuraminic acid], for which the “Action of the enzyme on substrate” value in data set [3] is on record as “hardly acts or does not at all act”. `c1ccc(-c2ccccn2)nc1` [α,α'-Dipyridyl]: in data set [1], the “Residual activity (%)” value was determined as 106%. Still for that read-out and setting: next, `O=S(=O)([O-])[O-].[Co+2]` [CoSO4]: 75%. Still for that read-out and setting: next, `O=C(O)CF` [FCH2 COONa]: 107%. For the compound `O=S(=O)([O-])[O-].[Ni+2]` [NiSO4], in data set [1], the “Inhibition of enzyme activity (in words)” value is given as “considerably” and the “Residual activity (%)” value is 64%.

As to “bovine serum albumin: bovine serum albumin added at 1 mg/ml as stabilizer of the enzyme”, the “Effect on enzyme activity on heat treatment” value in data set [4] is “stabilized and moreover slightly enhanced”.

Consider `NC(=O)CI` [ICH2 CONH2], for which the “Residual activity (%)” value in data set [1] is given as 90%. For `O=[N+]([O-])[O-].[Ag+]` [AgNO3], the “Residual activity (%)” value in data set [2] (Phosphate buffer solution, 1.8mM) was found to be 5%. For `O=S(=O)([O-])[O-].[Cu+2]` [CuSO4], the “Residual activity (%)” value in data set [1] was found to be 74%. HgCl2: in data set [1], the “Inhibition of enzyme activity (in words)” value is “inhibited greatly” and the “Residual activity (%)” value came out at 17%. As to `[Ca+2].[Cl-].[Cl-]` [CaCl2], the “Residual activity (%)” value in data set [1] came out at 91%. `O=S(=O)([O-])[O-].[Fe+2]` [FeSO4]: in data set [1], the “Inhibition of enzyme activity (in words)” value is listed as “inhibited greatly” and the “Residual activity (%)” value came out at 15%. In the case of `O=C([O-])CN(CCN(CC(=O)[O-])CC(=O)[O-])CC(=O)[O-].[Na+].[Na+].[Na+].[Na+]` [EDTA, Ethylenediaminetetraacetic acid sodium salt], the “Residual activity (%)” value in data set [2] (pH 7.5) turned out to be 87%.

As for `CCCCCCCCCCCCOS(=O)(=O)[O-].[Na+]` [SDS, Sodium dodecylsulfate], in data set [1], the “Residual activity (%)” value is on record as 87%. As for `O=S(=O)([O-])[O-].[Zn+2]` [ZnSO4], in data set [1], the “Inhibition of enzyme activity (in words)” value is “inhibited greatly” and the “Residual activity (%)” value was determined as 2%. As for `[N-]=[N+]=[N-].[Na+]` [NaN3], the “Residual activity (%)” value in data set [1] amounted to 103%. For `O=C(O)c1cc[c]([Hg][Cl])cc1` [PCMB, pChloromercurybenzoate], the “Residual activity (%)” value in data set [1] is on record as 67%.
